From patent US4798787A, “Peptide antibodies and their use in detecting oncogene products” (Cetus Corporation, priority 1984, dated 1989) come the findings set out here.

The target of this test is T1, p21 protein (v-Ki-ras p21, serine at position 12) (Kirsten murine sarcoma virus, UniProt P01117).
T1 construct: made in house; host or cells: E. coli (plasmid pINIII-ras, gift of M. Inouye, printed 'Inouge')
The test can be described thus: Inhibition by nucleotides of anti-p21ser antibody binding to p21 protein under mild denaturation conditions. As to conditions: 10 mM nucleotide. The source says:
An alternative explanation is that the antibody binds at some distance from the GTP binding site and yet alters GTP binding by disturbing the tertiary structure of the protein. […] The invention herein is not limited to either explanation.

T1 sequence (P01117 whole entry): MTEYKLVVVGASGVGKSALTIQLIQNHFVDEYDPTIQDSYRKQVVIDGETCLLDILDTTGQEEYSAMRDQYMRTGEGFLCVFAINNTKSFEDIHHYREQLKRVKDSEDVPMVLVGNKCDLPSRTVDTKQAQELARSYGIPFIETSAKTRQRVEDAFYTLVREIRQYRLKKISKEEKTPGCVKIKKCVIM

For the compound `Nc1nc2c(ncn2[C@@H]2O[C@H](COP(=O)(O)OP(=O)(O)OP(=O)(O)O)[C@@H](O)[C@H]2O)c(=O)[nH]1` [GTP, guanosine triphosphate], the “inhibition of the binding of anti-p21ser antibodies to p21 protein” value is given as “substantially inhibit”. `Nc1ncnc2c1ncn2[C@@H]1O[C@H](COP(=O)(O)OP(=O)(O)OP(=O)(O)O)[C@@H](O)[C@H]1O` [ATP]: the “inhibition of the binding of anti-p21ser antibodies to p21 protein” value is recorded as “not”.
